The nature of data set [1]: Cytotoxicity against human SKBR3 ER negative, PR negative,HER2 positive cells assessed as cell growth inhibition after 24 hrs by MTT assay. Type of data set: functional, cell-based. To be noted: SK-BR-3, 24 h. (In general: Formazan colour is commonly taken as a measure of viable cells.)
Data set [2] is described as follows: Cytotoxicity against human HCT116 cells assessed as cell growth inhibition after 24 hrs by MTT assay. Type of data set: functional, cell-based. Particulars: HCT-116, 24 h.
Data set [3] can be described thus: Cytotoxicity against human MCF7 ER positive, PR positive/negative,HER2 negative cells assessed as cell growth inhibition after 24 hrs by MTT assay. Particulars: MCF7, 24 h. It counts as functional, cell-based.
Data set [4] can be described thus: Cytotoxicity against human HepG2 cells assessed as cell growth inhibition after 24 hrs by MTT assay. It counts as functional, cell-based. To be noted: HepG2, 24 h.
A short description of data set [5]: Cytotoxicity against human HeLa cells assessed as cell growth inhibition after 24 hrs by MTT assay. It counts as functional, cell-based.
A short description of data set [6]: Cytotoxicity against human MDA-MB-231 ER negative, PR negative,HER2 negative cells assessed as cell growth inhibition after 24 hrs by MTT assay. Particulars: MDA-MB-231, 24 h. Type of data set: functional, cell-based.
Data set [7] can be described thus: Cytotoxicity against human WI38 cells assessed as cell growth inhibition after 24 hrs by MTT assay. Type of data set: toxicity, cell-based, WI-38.
A short description of data set [8]: Cytotoxicity against human HaCaT cells assessed as cell growth inhibition after 24 hrs by MTT assay. Type of data set: toxicity, cell-based.
A short description of data set [9]: Cytotoxicity against human breast cancer cells assessed as cell growth inhibition after 3 days by SRB assay. Type of data set: functional, Cancer cell lines. On the technique in general: Sulforhodamine B stains cellular protein and so reports cell mass.

13 compounds from ChEMBL document CHEMBL3871282, “Neo-tanshinlactone D-ring modified novel analogues induce apoptosis in human breast cancer cell via DNA damage” (Bioorg Med Chem, 2017) can be followed below.

By IC50 is commonly meant the point on the concentration scale where inhibition reaches its midpoint. With `O=C(Oc1cc(=O)[nH]c2c1ccc1ccccc12)c1ccccc1`, the 50% inhibitory concentration (IC50) in [1] is 42.6 µM; in data set [2], 64 µM; in [3] it was 30.6 µM; in data set [4], 83.1 µM; in data set [5], 81 µM; in data set [6], 49.3 µM.

With `O=C(Oc1cc(=O)[nH]c2c1ccc1ccccc12)c1ccc(F)cc1F`, the IC50 in data set [1] amounted to 67.1 µM; in data set [2], 92.8 µM; in [3], 63.4 µM; in data set [4], 67.5 µM; in data set [5], 68.9 µM; in data set [6] it was 70.2 µM.

Take `O=c1cc(OCc2nc3ccccc3[nH]2)c2ccc3ccccc3c2[nH]1`: the IC50 was 0.103 µM in data set [1]; 0.0672 µM in data set [2]; 0.0383 µM in data set [3]; 44.2 µM in [4]; 34.9 µM in data set [5]; 0.117 µM in [6]. Moreover, the IC50 at 24 h in data set [7] and in data set [8] was greater than 100 µM in each case.

`Cc1cccc2c1ccc1c3occ(C)c3c(=O)oc21`: the GI in [9] is 9.65 µM.

Take `O=c1cc(OS(=O)(=O)c2ccc(F)cc2)c2ccc3ccccc3c2[nH]1`: the IC50 in data set [1] was 144 µM; in data set [2], 168 µM; in data set [3], 132 µM; in data set [4] it was greater than 200 µM; in data set [5] it was greater than 200 µM; in [6], 157 µM.

In the case of `CCC(=O)Oc1cc(=O)[nH]c2c1ccc1ccccc12`, the IC50 in data set [1] amounted to 30.6 µM; in data set [2] it was 52 µM; in data set [3], 20.9 µM; in data set [4], 55.1 µM; in [5] it was 59.2 µM; in data set [6], 34.5 µM.

As for `O=c1cc(OCc2ccc([N+](=O)[O-])cc2)c2ccc3ccccc3c2[nH]1`, the IC50 came to 0.153 µM in data set [1]; 0.0881 µM in [2]; 0.0665 µM in [3]; 41.3 µM in data set [4]; 39.7 µM in data set [5]; 0.181 µM in data set [6]. Besides, the IC50 at 24 h in data set [7] and in [8] was greater than 100 µM throughout.

For `CCCC(=O)Oc1cc(=O)[nH]c2c1ccc1ccccc12`, the IC50 in data set [1] is 31.1 µM; in data set [2] it was 23.3 µM; in data set [3], 11.3 µM; in [4], 35.2 µM; in data set [5] it was 62 µM; in [6], 38.2 µM.

With `COc1ccc(COc2cc(=O)[nH]c3c2ccc2ccccc23)cc1`, the IC50 in [1] came out at 0.166 µM; in data set [2] it was 0.0752 µM; in data set [3], 0.0487 µM; in data set [4], 42.2 µM; in [5], 42.7 µM; in data set [6], 0.178 µM. Further, the IC50 at 24 h in data set [7] and in [8] was greater than 100 µM each time.

Turning to `O=C(/C=C/c1ccc([N+](=O)[O-])cc1)Oc1cc(=O)[nH]c2c1ccc1ccccc12`, the half-inhibitory concentration (IC50) in data set [1] came out at 38.4 µM; in data set [2] it was 76.1 µM; in data set [3] it was 37.9 µM; in data set [4], 99.1 µM; in [5], 90 µM; in data set [6], 43.9 µM.

Regarding `O=C(Oc1cc(=O)[nH]c2c1ccc1ccccc12)c1ccc([N+](=O)[O-])cc1`, the IC50 in data set [1] came to 56.4 µM; in data set [2], 84.1 µM; in data set [3], 45.9 µM; in [4], 103 µM; in data set [5] it was 85.3 µM; in data set [6], 69.4 µM.

Turning to `CC(C)CC(=O)Oc1cc(=O)[nH]c2c1ccc1ccccc12`, the IC50 is 39.8 µM in data set [1]; 27.6 µM in data set [2]; 11.9 µM in data set [3]; 73.1 µM in data set [4]; 45.4 µM in data set [5]; 57.4 µM in [6].

With `O=c1cc(OS(=O)(=O)c2ccc(C(F)(F)F)cc2)c2ccc3ccccc3c2[nH]1`, the 50% inhibitory concentration (IC50) in data set [1] was 131 µM; in data set [2] it was 150 µM; in data set [3], 120 µM; in data set [4] it was greater than 200 µM; in data set [5], greater than 200 µM; in [6], 139 µM.
